Results published in patent publication US9346839B2.
Like-named read-outs stand apart in the source and are kept apart here.

Key:
ABAD [1] = molecular target: T1, ABAD (Homo sapiens (Human), UniProt Q99714); assay: Inhibition of reduction of S-acetoacetyl-CoA (SAAC) by ABAD (ABAD enzymatic activity); format: biochemical
Description: Assay of ABAD Enzymatic Activity. […] Before the assay, all the assay components except SAAC were pre-incubated for 5 minutes, and the reaction started with the addition of SAAC into the reaction mix. The reaction was carried out for a total 6 minutes at room temperature under steady-state conditions, and the decrease of NADH absorbance at 340 nm was determined every 10 seconds. Kinetic data were analyzed by PRISM (Scitech, San Diego, Calif.) to determine IC50 values and Ki.

ABAD [2] = molecular target: T1, ABAD; assay: Surface plasmon resonance (BIACORE 3000) binding experiment with ABAD
Description: Binding Experiment with ABAD. The interactions between compounds and ABAD were performed using the dual flow cell BIACORE 3000 instrument. Surface Plasmon Resonance (SPR) studies were performed on a BIACORE 3000 at 25° C. SPR binding experiments with ABAD were performed in phosphate-buffered saline (PBS, pH 7.4, 0.005% surfactant P20) as the running and the sample buffer. […] ABAD was dissolved in PBS buffer (pH 5.0) at a concentration of 10 μg/ml. The protein was immobilized directly and covalently on the hydrophilic carboxymethylated dextran matrix of the CM5 sensor chip (BIACORE) by using the standard primary amine coupling reaction on a CM5 sensor chip according to standard procedures. After the immobilization of the protein, excess activated carboxylic acid groups were quenched with ethanolamine (1 M, pH 8.5).
Special care was taken during injection of samples because of carryover effects. Special washing routines were used to clean the system before injection of new samples. In addition, predipping of needles was performed. The sample flow was 40 μl/minute in experiments performed for the determination of the kinetic and equilibrium constants. Regeneration of the surfaces between subsequent binding experiments was achieved by washing the surface extensively (>>1 hour) with buffer solution. Data analyses were carried out using BIA evaluation software, and the sensor grams were processed by automatic correction for nonspecific bulk refractive index effects. The kinetic analyses of the ligand binding to the protein were performed based on the 1:1 Langmuir binding fit model according to the standard procedures described in the software manual.
To perform kinetic analyses of the binding of phosphonate derivatives to ABAD, the BIACORE 3000 instrument (based on surface plasmon resonance [SPR] technology) was used. The 1:1 Langmuir binding fit model was used for determining the equilibrium dissociation constant (KD), and the association (kon) and dissociation (koff) rate constants by using Equations (1) and (2). dR/dt=kon×C×(Rmax−R)−koff×R (1) Where R represents the response unit, C is the concentration of the analyte, and KD=koff/kon (2) The results were evaluated by χ2 analysis.

[3] = system: mitochondrial permeability transition pore (mPTP); assay: Mitochondria swelling assay in response to Ca2+; parameters: species or system mice; details: for calcium-mediated mitochondrial swelling: with calcium
Description: Isolation of Brain Mitochondria. Brain from mice without white matter was used for mitochondrial isolation. Brain was homogenized in 9 ml of ice-cold EB buffer (1 mmol EDTA, 1-6 mg/ml BSA) using a Dounce homogenizer until no particles could be seen. Homogenates were centrifuged at 1300×g for 5 minutes. Supernatant from this fraction was carefully laid on top of a 15% PERCOLL solution (10 ml) and then centrifuged at 16000 RPM for 10 minutes. The pellet was carefully mixed with 9 ml of mitochondrial buffer (4.098% D-mannitol, 2.56% sucrose, 0.034% K2HPO4, pH 7.3-7.4) and 200 μl of 1% digitonin. After 5 minutes incubation on ice, the mixture was centrifuged at 8000 RPM for 10 minutes. Mitochondrial pellet was washed once with mitochondrial buffer. Subsequently, the mitochondrial pellet was resuspended in 100 μl of mitochondrial buffer and was used for further experiments.
Mitochondria Swelling Assay. A proper amount of mitochondria was resuspended into 1 ml swelling assay buffer (150 mM KCl, 2 mM KH2PO4, 10 mM HEPES, pH 7.4) and energized by 1 mM glutamate and 1 mM malate. Calcium at varying concentrations was added into the assay buffer to trigger mitochondrial swelling. Mitochondrial permeability transition was determined by studying the rate of change in absorbance at 540 nm via a spectrophotometer.
Mitochondrial Swelling in Response to Ca^2+. Given that the Compounds 4, 8 and 15 could inhibit ABAD activity, it was determined whether these same compounds could decrease mitochondrial permeability transition pore (mPTP) formation.

SK-N-SH cells [4] = assay: Mitochondrial cytochrome c oxidase (CcO) activity in Aβ-treated cells; format: cell-based; details: for CcO activity, inhibitor alone: 1 μM inhibitor alone, without Aβ; for Aβ-mediated decrease of CcO activity: 5 μM oligomer Aβ1-42 plus 1 μM compound, 48 hours
Description: SK-NSH cells were treated with 5 μM oligomer Aβ plus 1 μM of ABAD inhibitor; inhibitor alone; vehicle (VEH) without inhibitor; or Aβ alone. Forty-eight hour later, CcO activity (μmol protein mg^−1 min^−1) was measured in cell lysates.
Method of Measurement of Mitochondrial Cytochrome c Oxidase (CcO) Activity. The CcO activity was measured according to known methods (Du, et al. (2008) Nat. Med. 14:1097-105) with a cytochrome c oxidase kit (Sigma). In brief, SK-N-SH cells were incubated with ABAD inhibitor and oligomer Aβ for 48 hours. After washing the cells twice with PBS, the cells were collected and concentration was determined by the Bradford method. A suitable volume of cells and enzyme solution was added to 475 μl assay buffer. The reaction was triggered by the addition of 25 μl freshly prepared ferrocytochrome C substrate solution into the cuvette. Changes in OD550 nm were recorded immediately with an Amersham Biosciences ULTROSPECT 3100 pro spectrophotometer.
Cytochrome C Oxidase (CcO) Activity. To assess the effect of ABAD inhibitor on […] mitochondrial respiratory function, CcO activity was determined.

SK-N-SH cells [5] = assay: ATP levels in Aβ-treated cells; format: cell-based; details: for ATP levels in Aβ-treated cells: 5 μM Aβ1-42 plus 1 μM compound; for ATP levels, inhibitor alone: without Aβ
Description: Forty-eight hour later, ATP levels (μmol mg^−1 protein) were measured in cell lysates.
Adenosine-5′-Triphosphate (ATP) Levels. To determine the effect of ABAD inhibitors on Aβ-induced impairment in energy metabolism, ATP levels were measured. […] ATP levels were measured in the cell lysates. […] Therefore, ABAD inhibitors can block mitochondrial dysfunction mediated by Aβ.

[6] = Solubility in solvents during method development; format: physicochemical
Description: Method Development. During the development of a detection method for analytes 4, 8 and 15, multiple solvents were tested to find the optimal mobile phase. […] Acetonitrile was selected for better peak shape and compatibility with serum/brain protein precipitation. Compounds 8 and 15 were chosen as IS, because of their structural similarity. Selected reaction monitoring (SRM) acquisitions were used for sensitivity and extended dynamic range. The cone voltage and collision energy were optimized for 4, 8 and 15 and the IS by continuously infusing a mixture of the two. The optimum cone voltage was 30V.

[7] = Stability of standards under temperature and storage conditions; format: physicochemical; details: standards in methanol; 25° C. short-term, −20° C. for twenty days
Description: Stability. The stability of compounds 4, 8, and 15 was evaluated in ACSF, plasma, and brain matrices under various temperature and storage conditions. Stability at room temperature was studied by analyzing samples at 25° C. for 2 and 4 hours and stability at −80° C. was checked for one month. Samples were analyzed after three (−80° C. to 25° C.) freeze-thaw cycles. Stability studies were performed at three concentrations.
Stability The stability of ABAD compounds were determined under different temperature and storage conditions. 4, 8 and 15 standards were dissolved in methanol and were subjected short-term exposure at 25° C. for and 4 hours long-term storage conditions were assessed at −20° C. for twenty days.

[8] = Table 6, reduction of SAAC by ABAD, read-out: IC50
[9] = Table 6, reduction of SAAC by ABAD, read-out: Ki
[10] = Table 7, read-out: ABAD Enzymatic Activity IC50
[11] = Table 7, read-out: ABAD Enzymatic Activity Ki
[12] = Table 7, 1:1 Langmuir binding fit, read-out: SPR KD

T1 sequence (Q99714 whole entry): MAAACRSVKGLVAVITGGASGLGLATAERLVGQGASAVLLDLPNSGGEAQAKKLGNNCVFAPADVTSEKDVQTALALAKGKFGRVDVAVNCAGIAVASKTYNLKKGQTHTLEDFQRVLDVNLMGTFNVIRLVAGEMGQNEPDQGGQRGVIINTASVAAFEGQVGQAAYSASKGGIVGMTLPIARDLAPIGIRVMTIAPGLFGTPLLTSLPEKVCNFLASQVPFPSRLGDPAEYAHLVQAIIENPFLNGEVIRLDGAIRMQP

| Compound | IC50 (ABAD [1]; [8]) | Ki (ABAD [1]; [9]) | IC50 (ABAD [1]; [10]) | Ki (ABAD [1]; [11]) | inhibitory effect on SAAC reduction by ABAD (ABAD [1]; in words) | Kd (ABAD [2]; [12]) | calcium-mediated mitochondrial swelling [3] | mitochondrial swelling without calcium [3] | CcO activity, inhibitor alone (SK-N-SH cells [4]) | Aβ-mediated decrease of CcO activity (SK-N-SH cells [4]) | ATP levels in Aβ-treated cells (SK-N-SH cells [5]) | ATP levels, inhibitor alone (SK-N-SH cells [5]) | solubility in methanol or acetonitrile [6] | solubility in water [6] | stability, variability across all samples [7] | Kd (ABAD [2]; Table 6, read-out: KD) | inhibition of SAAC reduction by ABAD (ABAD [1]; at 10 μM) | inhibitory effect on SAAC reduction by ABAD (ABAD [1]; at 100 or 400 μM) |
| --- | --- | --- | --- | --- | --- | --- | --- | --- | --- | --- | --- | --- | --- | --- | --- | --- | --- | --- |
| COc1ccc2nc(N[C@@H](c3ccc(O)cc3)P(=O)(OC)OC)sc2c1 (racemic) [Compound 8, Dimethyl ((4-hydroxyphenyl)((6-methoxybenzo[d]thiazol-2-yl)amino)methyl)phosphonate] | 259 µM | 70.6 µM | 52.7 µM | 14.9 µM | most potent inhibitory effect | 0.291 µM | antagonized calcium-mediated mitochondrial swelling | did not affect mitochondrial swelling without calcium | no effect on CcO activity without Aβ | reversed the Aβ-mediated decrease of CcO activity | rescued ATP levels | comparable to cells treated with vehicle alone without Aβ | dissolved readily in methanol or acetonitrile | dissolved partially in water | less than 10 % (RSD) | – | – | – |
| COC(=O)c1cc([C@H](Nc2nc3ccc(OC)cc3s2)P(=O)(OC)OC)ccc1O [Compound 4, Methyl 5-((dimethoxyphosphoryl)((6-methoxybenzo[d]thiazol-2-yl)amino)methyl)-2-hydroxybenzoate] | 19.6 µM | 5.5 µM | 341 ± 68.7 µM | 96.6 ± 19.4 µM | modest inhibitory effect | 0.496 µM | antagonized calcium-mediated mitochondrial swelling | did not affect mitochondrial swelling without calcium | no effect on CcO activity without Aβ | reversed the Aβ-mediated decrease of CcO activity | rescued ATP levels | comparable to cells treated with vehicle alone without Aβ | dissolved readily in methanol or acetonitrile | dissolved partially in water | less than 10 % (RSD) | 0.496 µM | – | – |
| COc1ccc2nc(N[C@@H](c3ccc(F)cc3)P(=O)(OC)OC)sc2c1 [Compound 15, Dimethyl ((4-fluorophenyl)((6-methoxybenzo[d]thiazol-2-yl)amino)methyl)phosphonate] | – | – | 1260 ± 199 µM | 356 ± 56.1 µM | – | 0.264 µM | antagonized calcium-mediated mitochondrial swelling | did not affect mitochondrial swelling without calcium | no effect on CcO activity without Aβ | reversed the Aβ-mediated decrease of CcO activity | rescued ATP levels | comparable to cells treated with vehicle alone without Aβ | dissolved readily in methanol or acetonitrile | dissolved partially in water | less than 10 % (RSD) | – | did not inhibit | slight inhibitory effect |
